The source of these data is patent US8853238B2, “Fused heterocyclic compound and use thereof for pest control” (Sumitomo Chemical Company, Limited, priority 2010, dated 2014).

Holding throughout (format): in vivo
For experiment [1], the system named is Adoxophyes orana fasciata. Nature of the experiment: Test Example 8: spray on apple tree, release of Adoxophyes orana fasciata. As to conditions: in Malus domestica, 168 h; 500 ppm active ingredient; apple tree sprayed with 20 mL/cup; 60 first-instar Adoxophyes orana fasciata; after 7 days; read-out: Death rate. The procedure:
On the other hand, an apple tree was planted in a plastic cup, and grown until the seventh-eighth leaf was spread. The apple tree was sprayed with 20 mL/cup of each of the test spray solution. After the test solution was dried, 60 first-instar Adoxophyes orana fasciata were released, and the cup was covered with a plastic cup upside-down which the bottom was cut off and a filter paper was put thereon. After 7 days, the number of living insects was counted, and a death rate was calculated according to the following equation: Death rate (%)=(Number of dead insects/Number of tested insects)×100

The subject of experiment [2] is Aphis gossypii. Nature of the experiment: Test Example 2: root immersion of cucumber seedling, then inoculation with Aphis gossypii. As to conditions: 168 h; 500 ppm active ingredient; cucumber root part immersed in 5 ml; 30 Aphis gossypii inoculated one day after treatment; examined after further seven days. The protocol:
A root part of a cucumber seedling (the first true leaf stage) from which soil had been washed off was immersed in 5 ml of each of the diluted solutions, and one day after treatment, on the cucumber leaf surface was inoculated with 30 Aphis gossypii (whole stage). After further seven days, the number of insect of living Aphis gossypii parasitized on the leaves of the cucumber was examined, and a control value was calculated according to the following equation: Control value (%)={1−(Cb×Tai)/(Cai×Tb))×100 wherein symbols represent as follows: Cb: the number of insects in a non-treated section before treatment, Cai: the number of insects in a non-treated section in observation, Tb: the number of insects in a treated-section before treatment, Tai: the number of insects in a treated-section in observation; wherein the non-treated section represents a section where the test diluted solution prepared by diluting the formulation without the present compound in Formulation Example 5 with the same amount of water as in the treated-section was used.

The test system of experiment [3] is Nilaparvata lugens. The experiment in a line: Test Example 4: spray on rice seedling, release of Nilaparvata lugens larvae. As to conditions: 144 h; 500 ppm active ingredient; rice seedling sprayed with 10 ml; third-fourth instar larvae of Nilaparvata lugens; after 6 days at 25° C.; read-out: Control value.
The test system of a further experiment is Bemisia tabaci. Nature of the experiment: Test Example 6: spray on tomato seedling with Bemisia tabaci instar larvae. As to conditions: 168 h; 500 ppm active ingredient; 20 ml/cup sprayed on tomato seedling with hatched Bemisia tabaci instar larvae; after 7 days at 25° C. The protocol: On the other hand, Bemisia tabaci adult was released on a tomato seedling (the third true leaf stage) planted in a polyethylene cup, and made to lay eggs for about 72 hours. The tomato seedling was kept in a greenhouse for 8 days. When instar larvae hatched from the eggs, the above test spray solution was sprayed in the amount of 20 ml/cup. The cup was kept in a greenhouse at 25° C. After the keeping for 7 days, the number of surviving instar larvae on the tomato leaves was examined, and a control value was calculated according to the following equation: Control value (%)={1−(Cb×Tai)/(Cai×Tb))×100 wherein symbols represent as follows: Cb: the number of insects in a non-treated section before treatment, Cai: the number of insects in a non-treated section in observation, Tb: the number of insects in a treated-section before treatment, Tai: the number of insects in a treated-section in observation; wherein the non-treated section represents a section where the test spray solution prepared by diluting the formulation without the present compound in Formulation Example 5 with the same amount of water as in the treated-section was sprayed.

The subject of experiment [4] is Aphis gossypii. The experiment in a line: Test Example 1: spray on cucumber seedling inoculated with Aphis gossypii. As to conditions: topical, 144 h; 500 ppm active ingredient (Formulation Example 5 diluted with water); 20 ml sprayed on cucumber seedling with about 30 Aphis gossypii; six days after spraying. The procedure:
On the other hand, on a cucumber seedling (the first true leaf stage) planted in a plastic cup was inoculated with about 30 Aphis gossypii, and leaving it for a day. Twenty ml of each of the above test spray solutions was sprayed on this seedling. Six days after spraying, the number of the surviving Aphis gossypii parasitized on the leaves of the cucumber was examined, and a control value was calculated according to the following equation: Control value (%)={1−(Cb×Tai)/(Cai×Tb))×100 wherein symbols represent as follows: Cb: the number of insects in a non-treated section before treatment, Cai: the number of insects in a non-treated section in observation, Tb: the number of insects in a treated-section before treatment, Tai: the number of insects in a treated-section in observation; wherein the non-treated section represents a section where the test spray solution prepared by diluting the formulation without the present compound in Formulation Example 5 with the same amount of water as in the treated-section was sprayed.

The test system of experiment [5] is Nilaparvata lugens. Nature of the experiment: Test Example 5: drench at foot of rice seedling, release of Nilaparvata lugens larvae. The conditions noted are these: soil, 144 h; 500 ppm active ingredient; rice seedling drenched at its foot with 5 ml, kept 7 days; twenty third-fourth instar larvae of Nilaparvata lugens; examined after 6 days. The procedure: On the other hand, a rice seedling (2 weeks after sowing, the second leaf stage) planted in a plastic cup was drenched at its foot with 5 ml of each of the diluted solutions, and kept in a greenhouse of 25° C. for 7 days. Twenty third-fourth instar larvae of Nilaparvata lugens were released, and further kept in the greenhouse for 6 days, then the number of insect of living Nilaparvata lugens parasitized on the rice was examined, and a control value was calculated according to the following equation: Control value (%)={1−(Cb×Tai)/(Cai×Tb))×100 wherein symbols represent as follows: Cb: the number of insects in a non-treated section before treatment, Cai: the number of insects in a non-treated section in observation, Tb: the number of insects in a treated-section before treatment, Tai: the number of insects in a treated-section in observation; wherein the non-treated section represents a section where the test diluted solution prepared by diluting the formulation without the present compound in Formulation Example 5 with the same amount of water as in the treated-section was used.

The test system of experiment [6] is Aphis gossypii. Nature of the experiment: Test Example 3: drench at foot of cucumber seedling, then inoculation with Aphis gossypii. The conditions noted are these: soil, 144 h; 500 ppm active ingredient; cucumber seedling drenched at its foot with 5 ml, kept 7 days at 25° C.; 30 Aphis gossypii inoculated; examined after 6 days; read-out: Control value.

Where only a bound is given, the exact number is not on record here.

Regarding `C=CCS(=O)(=O)c1ccccc1-c1nc2cc(C(F)(F)F)cnc2n1C` [Present Compound 11, 2-(2-allylsulfonylphenyl)-3-methyl-6-trifluoromethyl-3H-imidazo[4,5-b]pyridine], the pest or weed control at 500 ppm in experiment [1] was not below 90%.

For the molecule `CC(C)[S+]([O-])c1ccccc1-c1nc2cc(C(F)(F)F)cnc2n1C` (centres unmarked) [Present Compound 13, 2-(2-isopropylsulfinylphenyl)-3-methyl-6-trifluoromethyl-3H-imidazo[4,5-b]pyridine], the pest or weed control at 500 ppm (with Aphis gossypii [2]; in experiment [1]) was not below 90% each time.

`CC(C)S(=O)(=O)c1ccccc1-c1nc2cc(C(F)(F)F)cnc2n1C` [Present Compound 14, 2-(2-isopropylsulfonylphenyl)-3-methyl-6-trifluoromethyl-3H-imidazo[4,5-b]pyridine]: the pest or weed control at 500 ppm (in the experiment on Nilaparvata lugens [3]; with Aphis gossypii [2]; in experiment [1]) was not below 90% throughout.

Turning to `CCSc1ccccc1-c1nc2cc(C(F)(F)F)cnc2n1CC` [Present Compound 21, 3-ethyl-2-(2-ethylsulfanylphenyl)-6-trifluoromethyl-3H-imidazo[4,5-b]pyridine], the pest or weed control at 500 ppm with Nilaparvata lugens [3] and in the experiment on Bemisia tabaci was not below 90% throughout.

For `CCn1c(-c2ccccc2[S+]([O-])CC)nc2cc(C(F)(F)F)cnc21` (centres unmarked) [Present Compound 22, 2-(2-ethylsulfinylphenyl)-3-ethyl-6-trifluoromethyl-3H-imidazo[4,5-b]pyridine], the pest or weed control at 500 ppm (with Bemisia tabaci; in experiment [1]) was not below 90% each time.

In the case of `CCn1c(-c2ccccc2S(=O)(=O)CC)nc2cc(C(F)(F)F)cnc21` [Present Compound 23, 2-(2-ethylsulfonylphenyl)-3-ethyl-6-trifluoromethyl-3H-imidazo[4,5-b]pyridine], the pest or weed control at 500 ppm in experiment [1] is not below 90%.

On to `CC[S+]([O-])c1ccccc1-c1nc2cc(C(F)(F)F)cnc2n1C(C)C` (centres unmarked) [Present Compound 28, 2-(2-ethylsulfinylphenyl)-3-isopropyl-6-trifluoromethyl-3H-imidazo[4,5-b]pyridine], for which, in experiment [1], the pest or weed control at 500 ppm was not below 90%.

For the molecule `CCS(=O)(=O)c1ccccc1-c1nc2cc(C(F)(F)F)cnc2n1C(C)C` [Present Compound 29, 2-(2-ethylsulfonylphenyl)-3-isopropyl-6-trifluoromethyl-3H-imidazo[4,5-b]pyridine], the pest or weed control at 500 ppm in experiment [1] is not below 90%.

Take `CC[S+]([O-])c1ccccc1-c1nc2cc(C(F)(F)F)cnc2n1C1CC1` (centres unmarked) [Present Compound 31, 3-cyclopropyl-2-(2-ethylsulfinylphenyl)-6-trifluoromethyl-3H-imidazo[4,5-b]pyridine]: in experiment [1], the pest or weed control at 500 ppm is not below 90%.

`CC[S+]([O-])c1ccccc1-c1nc2cc(C#N)cnc2n1C` (centres unmarked) [Present Compound 49, 6-cyano-2-(2-ethylsulfinylphenyl)-3-methyl-3H-imidazo[4,5-b]pyridine] had a pest or weed control at 500 ppm in the experiment with Bemisia tabaci not below 90%.

For the molecule `CC[S+]([O-])c1ccccc1-c1nc2cc(C(F)(F)F)cc(Br)c2n1C` (centres unmarked) [Present Compound 75, 7-bromo-2-(2-ethylsulfinylphenyl)-1-methyl-5-trifluoromethyl-1H-benzimidazole], the pest or weed control at 500 ppm in the experiment with Bemisia tabaci and in the experiment with Aphis gossypii [4] was not below 90% throughout.

In the case of `CCSc1c(Cl)cccc1-c1nc2cc(C(F)(F)F)cnc2n1C` [Present Compound 88, 2-(3-chloro-2-ethylsulfanylphenyl)-3-methyl-6-trifluoromethyl-3H-imidazo[4,5-b]pyridine], the pest or weed control at 500 ppm in the experiment on Aphis gossypii [2] and in the experiment on Bemisia tabaci was not below 90% in each case.

On to `CCS(=O)(=O)c1c(Cl)cccc1-c1nc2cc(C(F)(F)F)cnc2n1C` [Present Compound 90, 2-(3-chloro-2-ethylsulfonylphenyl)-3-methyl-6-trifluoromethyl-3H-imidazo[4,5-b]pyridine], for which the pest or weed control at 500 ppm in the experiment on Nilaparvata lugens [5] and with Aphis gossypii [6] was not below 90% each time.

Consider `CCSc1ccccc1-c1nc2cc(SC(F)(F)F)cnc2n1C` [Present Compound 161, 2-(2-ethylsulfanyl-phenyl)-3-methyl-6-trifluoromethylsulfanyl-3H-imidazo[4,5-b]pyridine], for which the pest or weed control at 500 ppm (in the experiment with Nilaparvata lugens [3]; in the experiment with Bemisia tabaci; in experiment [1]; with Aphis gossypii [4]) was not below 90% in each case.

Consider `Cn1c(-c2ccccc2S(=O)(=O)CC(F)(F)F)nc2cc(C(F)(F)F)cnc21` [compound 188], for which the pest or weed control at 500 ppm in the experiment with Nilaparvata lugens [3], in the experiment on Bemisia tabaci and in the experiment with Aphis gossypii [4] was not below 90% in each case.

Regarding `CCS(=O)(=O)c1cc(C(F)(F)F)ccc1-c1nc2cc(C(F)(F)F)cnc2s1` [compound 251, 2-[2-ethylsulfonyl-4-(trifluoromethyl)phenyl]-6-(trifluoromethyl)thiazolo[5,4-b]pyridine], the pest or weed control at 500 ppm (with Nilaparvata lugens [3]; in the experiment on Nilaparvata lugens [5]; in experiment [1]) was not below 90% in each case.

As for `CCS(=O)(=O)c1ccccc1-c1nc2cc(S(C)(=O)=O)cnc2n1C` [compound 254, 2-(2-ethylsulfonylphenyl)-6-methylsulfonyl3-methyl-3H-imidazo[4,5-b]pyridine], the pest or weed control at 500 ppm in the experiment on Aphis gossypii [2] and in the experiment on Aphis gossypii [6] was not below 90% each time.

With `CCS(=O)(=O)c1cc(C(F)(F)F)ccc1-c1nc2cc(S(=O)(=O)C(F)(F)F)cnc2n1C` [compound 302, 2-(2-ethylsulfonyl-4-trifluoromethylphenyl)-3-methyl-6-trifluoromethylsulfonyl-3H-imidazo[4,5-b]pyridine], in the experiment with Aphis gossypii [6], the pest or weed control at 500 ppm is not below 90%.

As to `CCS(=O)(=O)c1cc(S(F)(F)(F)(F)F)ccc1-c1nc2cc(C(F)(F)F)cnc2n1C` [compound 343, 2-(2-ethylsulfonyl-4-(pentafluorosulphur)phenyl)-3-methyl-6-trifluoromethyl-3H-imidazo[4,5-b]pyridine], the pest or weed control at 500 ppm in the experiment with Nilaparvata lugens [3], in the experiment on Nilaparvata lugens [5], in the experiment with Bemisia tabaci and in the experiment with Aphis gossypii [4] was not below 90% throughout.
